We go through nine molecules from patent publication US20080146555A1, “Uses of Kinase Inhibitors and Compositions Thereof” (GPC Biotech, Inc, priority 2004, published 2008).

For orientation: IC50 means the concentration that inhibits the measured activity by half.

One assay has as its system CEM. Briefly: SRB cytotoxicity, CEM parental cells. It is filed as cell-based. Conditions: Homo sapiens, CCRF-CEM, 72 h. The method, then: (§1) In these experiments, the P-glycoprotein expressing NCI-Adr resistant subline (Vickers et al., 1989. Mol Endocrinology 3 (1):157-164) was used. […] Briefly, cells were plated in 96 well dishes 24 hours prior to compound addition. Where noted, they were exposed to verapamil for 4 hours prior to compound addition and then throughout the treatment period (72 hours). The assay was terminated with the addition of cold TCA to a final concentration of 10% and the plates were incubated for one hour at 4° C. The plates were then washed 5 times with water and 100 μl of a Sulforhodamine B solution (4%) was added to each well. The plate was then incubated for 10 minutes at room temperature before removal of unbound dye by washing with 1% acetic acid.
(§2) The Camptothecin resistant CEM/C2 cells were derived from the T lymphoblastoid leukemia cell line CCRF/CEM by selection in the presence of Camptothecin in vitro (Kapoor et al., 1995. Oncology Research 7; 83-95, ATCC).
(§3) The effects of A37 and B16 were evaluated in the CCRF/CEM and CEM/C2 cells using the same SRB assay as described above, with 72-hour drug exposure.

Another assay has as its system CEM/C2. Put plainly: SRB cytotoxicity, camptothecin resistant cells. It counts as cell-based, human. The method, then: as §1, §2, §3
Another assay concerns A129 cp80. Briefly: SRB cytotoxicity, cisplatin resistant cells. It counts as cell-based, human.
The subject of the next assay is A129. Briefly: SRB cytotoxicity, A129 parental cells. It counts as cell-based, human. Conditions: 72 h. As to the method:
as §1
The parental non-mutated cell line A129 was used as a control.

The subject of assay [1] is HCT-116 cells. Briefly: Calcein AM viability assay, HCT-116. It is filed as cell-based. The conditions noted are these: Homo sapiens. As to the method: (§4) The potency of the subject kinase inhibitors, as measured by loss of cellular viability, was determined with the Calcein AM assay (Molecular Probes). Calcein AM is a substrate of intracellular esterases, which is cleaved only in viable cells to generate a fluorescent product that can be quantified with a fluorescent plate reader. The fluorescent signal is proportional to the number of viable cells, and thus loss of signal in response to the exposure of cells to the subject kinase inhibitors correlates with a loss of viability. This assay not only distinguishes cell cycle arrest, in which cells may still by viable, from loss of viability, and is thus well suited for the evaluation of the subject kinase inhibitors. A compound that is a potent cytotoxic agent may cause significant loss of cell viability in such an assay.
(§5) Cellular IC50's were determined in the human colorectal carcinoma cell line, HCT-116, and the normal human fibroblast, IMR90. Protein adjusted IC50's were also determined in HCT-116. Results of such viability assays are presented in Table 2 (HCT-116 (viability/protein adjusted) and IMR-90). IC50's (μM, non-protein adjusted) for the viability assay against HCT-116 cells are shown for further compounds of the invention in Table 4.
(§6) HCT-116 or IMR90 cells were recovered from sub-confluent plates by trypsinization and 1,000 or 4,000 cells, respectively, were plated in 24-well dishes and incubated overnight at 37° C., 5% CO2. HCT-116 cells were cultured in RPMI-1640, 10% FCS, and IMR90 cells were cultured in Minimum Essential Medium-alpha, 10% FCS. After overnight incubation to allow adherence, the media was aspirated from each well and replaced with media containing a test compound at a concentration from 0 to 250 nM, spanning a total of 7 doses. The plates were returned to the incubator and cultured for an additional 72 hours (3 days). […] After 72-hours incubation with the test compound, the cells were washed twice with 1×PBS, taking special care to remove all residual buffer.
(§7) A 5 μM Calcein AM solution was prepared by dissolving a 50 μg aliquot of Calcein (Molecular Probes catalog #C3100) in 50 μl DMSO. After the Calcein had completely dissolved (10 minutes at room temperature), it was diluted into 10 ml PBS. Calcein/PBS (0.5 ml) was added to each well. The plates were incubated for 75 minutes at 37° C. (protected from light) and the fluorescent signal was read on a fluorescent plate reader (excitation 485/20 and emission 530/25).

Assay [2] has as its system normal human fibroblast, IMR90. Put plainly: Calcein AM viability assay, IMR90. Conditions: IMR-90, Calcein AM, 72 h. It counts as cell-based. As to the method: as §4, §5, §6, §7
The subject of assay [3] is HCT-116 cells. Briefly: Clonogenic survival assay with HCT-116 cells. It is filed as cell-based. Conditions: Homo sapiens. As to the method:
This assay was used to determine the concentration of a compound that results in irreversible loss of viability after a specified period of exposure. Essentially, cells are exposed to compound for a period of […], and are then transferred to compound-free growth medium. After continued incubation in the compound-free medium for a number of days, the number of colonies recovered is counted as an estimate of the number of surviving cells.
Media (RPMI-1640, 10% FCS, pen/strep) was pre-warmed to 37° C. in a water bath. Cells were incubated and grown at 37° C., 5% CO2. Cells were recovered by trypsinization from sub-confluent plates and counted using a hemocytometer. 1×10^4 cells were plated in 25 mls of media in a 15 cm tissue culture dish. […] were set up for each test compound, and were incubated overnight at 37° C. The compound was diluted into media at 7 concentrations and the media on the cells was replaced with that containing the test compound. Two plates were set up for each concentration of the compound to be tested, as well as two control plates without compound. Plates were incubated as above for […], media was removed and replaced with fresh media, and the plates were incubated an additional 7 days and washed with PBS. Colonies were stained with crystal violet solution (0.4% crystal violet, 20% ethanol) for 5 minutes, washed twice with distilled water, and counted.

For assay [4], the system named is NCI panel of 60 cell lines. Briefly: cells. Conditions: Homo sapiens, 60 cell, 48 h, read-out: NCI panel MG-MID (Mean-Graph Mid-point, average IC50 over panel), 48 h, SRB; IC50 <10 nM counted as 10 nM. From the text:
(§8) The evaluation of compounds at the National Cancer Institute in their panel of 60 cell lines provides a wealth of information regarding efficacy in a wide range of tumor types and genetic backgrounds. Included within this panel are cell lines derived from leukemia, melanoma and cancers of the lung, colon, brain, ovary, breast, prostate and kidney. Use of this panel provides a measure of the efficacy of compounds in cells with alterations in many genes that are associated with neoplastic transformation including p53 and Her2/Neu as well as those involved in metabolism and those which confer multi-drug resistance. The data generated in these cell lines with the protocol described below can be used to evaluate the activity of compounds.
(§9) Cells were grown in RPMI-1640 10% FCS and plated in 96 well micro-titer plates at densities ranging from 5,000 to 40,000 cells/well. The plates were incubated for 24 hours at 37° C., 5% CO2 for 24 hours. Media containing twice the desired final concentration of the compound (5 doses spanning 4 logs) was prepared and 100 μl was added to each well containing 100 μl media plus cells to yield the desired final concentration. The plates were then incubated for an additional 48 hours.
(§10) The effect of the compound on cellular viability was determined with the Sulforhodamine B (SRB) assay, which measures total protein. Cells were fixed with cold TCA to a final concentration of 10% and incubated at 4° C. for 60 minutes. The supernatant was discarded and the plates were washed five times with water and air-dried. SRB solution at […] in 1% acetic acid was added to each well and the plates were incubated for 10 minutes at room temperature. The plates were washed five times with 1% acetic acid and air-dried. The bound stain was solubilized with 10 mM trizma base and the absorbance was read on a plate reader at […].

Assay [5] concerns adriamycin resistant cell line (ADR-res). Put plainly: NCI panel, adriamycin resistant cell line, SRB assay. It is filed as cell-based. The conditions noted are these: Homo sapiens, 48 h.
Excerpt: as §8, §9, §10

For a further assay, the system named is HT29/mit. Briefly: SRB cytotoxicity, mitoxanthrone resistant cells. It counts as cell-based, human. As to the method: as §1, with “acid. The bound dye was solubilized with 10 mM Trizma base and the absorbance read at OD570.” for “acid.”
(§11) The parental non-mutated cell line HT29 was used as a control.
(§12) Z. Cytotoxicity was measured using the SRB assay according to Shekan et al. as described above in Example 1A.

The test system of the next assay is HT29. Briefly: SRB cytotoxicity, HT29 parental cells. It is filed as cell-based. Conditions: Homo sapiens, HT-29, 72 h. The method, then:
as §1, §11, §12

The subject of another assay is 1A9. Put plainly: SRB cytotoxicity, 1A9 parental cells. It counts as cell-based. The conditions noted are these: Homo sapiens, 72 h. As to the method: as §1
(§13) The tubulin mutated, paclitaxel-resistant human ovarian carcinoma cell line 1A9-PTX10 and its parental paclitaxel-sensitive cell line 1A9 were derived from the A2780 human ovarian carcinoma cell line (J Biol Chem (1997) 272, 17118-17124).

A further assay relates to NCI-Adr resistant. Put plainly: SRB cytotoxicity, P-glycoprotein expressing cells with and without verapamil. It counts as cell-based. Conditions: for IC50: Homo sapiens, NCI/ADR-RES, 72 h, SRB. As to the method: as §1
The subject of a further assay is 1A9-PTX10. Briefly: SRB cytotoxicity, tubulin mutated paclitaxel-resistant cells. The conditions noted are these: for IC50: Homo sapiens, 1A9/ptx-10, 72 h, SRB. It counts as cell-based, human. As to the method:
as §1, §13

Setting [6] is: HCT-116, 72 h, Calcein AM, 72 h, read-out: HCT-116 IC50 Viability.
The mark [7] stands for this setting: HCT-116, plus 1 mg/ml alpha acidic glycoprotein and 45 mg/ml human serum albumin, read-out: HCT-116 IC50 Protein adjusted.
Setting [8] is: 24 h exposure, read-out: HCT-116 IC50 Clonogenic 24 h.
Setting [9] is: 48 h exposure, read-out: HCT-116 IC50 Clonogenic 48 h.

In the case of `CC[C@@]1(O)C(=O)OCc2c1cc1n(c2=O)Cc2cc3ccccc3nc2-1` [Camptothecin, reference compound], the IC50 with CEM stood at 3.5 nM; in the assay on CEM/C2 (Homo sapiens, CEM/C2, 72 h, SRB), 4820 nM. Further, the “RR (relative resistance) CEM/C2 vs CEM” value with CEM/C2 was 1378.
Regarding `N.N.[Cl][Pt][Cl]` [Cisplatin, cis-diamminedichloroplatinum (II), reference compound], the “RR (relative resistance) A129 cp80 vs A129” value in the assay with A129 cp80 was 51.6. The IC50 is 16700 nM in the assay on A129 cp80 (72 h, SRB) and 324 nM with A129.
With `O=C(Nc1cccc2c1C(=O)c1c-2n[nH]c1-c1ccc(OCCN(CCO)CCO)cc1)NN1CCOCC1` [H], the IC50 is less than 100 nM with HCT-116 cells [1] (setting [6]); less than 1000 nM in the assay with HCT-116 cells [1] (setting [7]); less than 100 nM in [2]; less than 1000 nM with HCT-116 cells [3] (setting [8]); less than 100 nM in the assay on HCT-116 cells [3] (setting [9]); less than 100 nM in assay [4]. In assay [5], this molecule came in with an IC50 greater than 10000 nM.
Regarding `CC(C)N1CCN(Cc2cc(-c3[nH]nc4c3C(=O)c3c(NC(=O)NN5CCOCC5)cccc3-4)ccc2O)CC1` [K], the IC50 in the assay with HCT-116 cells [1] (setting [6]) is less than 100 nM; in the assay on HCT-116 cells [1] (setting [7]), less than 1000 nM; in assay [2] it was greater than 100 nM; in the assay with HCT-116 cells [3] (setting [8]) it was less than 1000 nM; in [4] it was less than 100 nM; in [5] it was less than 10000 nM.
For the molecule `Cc1cc(OCCN2CCCC2)ccc1-c1[nH]nc2c1C(=O)c1c(NC(=O)NN3CCN(C)CC3)cccc1-2` [L], the IC50 in the assay on HCT-116 cells [1] (setting [6]) was less than 100 nM; in the assay with HCT-116 cells [1] (setting [7]), less than 1000 nM; in assay [2], greater than 100 nM; in the assay on HCT-116 cells [3] (setting [9]), less than 100 nM; in assay [4], greater than 10000 nM; in [5] it was greater than 10000 nM.
Take `O=C1c2c(O)ccc(O)c2C(=O)c2c(NCCNCCO)ccc(NCCNCCO)c21` [Mitoxanthrone, reference compound]: the “RR (relative resistance) HT29/mit vs HT29” value in the assay on HT29/mit was 153.1. Besides, the IC50 came out at 188000 nM in the assay with HT29/mit (Homo sapiens, HT-29, 72 h, SRB) and 1230 nM in the assay on HT29.
For the molecule `CC(=O)O[C@H]1C(=O)[C@@]2(C)[C@H]([C@H](OC(=O)c3ccccc3)[C@]3(O)C[C@H](OC(=O)[C@H](O)[C@@H](NC(=O)c4ccccc4)c4ccccc4)C(C)=C1C3(C)C)[C@]1(OC(C)=O)CO[C@@H]1C[C@@H]2O` [Paclitaxel, reference compound], the IC50 in the assay with 1A9 was found to be 4 nM; in the assay on NCI-Adr resistant (verapamil 12.5 μg/ml) it was 39 nM; with NCI-Adr resistant (without verapamil) it was 3960 nM; with 1A9-PTX10, 235 nM. For the same molecule, in the assay with NCI-Adr resistant (ratio of mean IC50), the “RR (relative resistance) NCI-Adr resistant −/+ verapamil” value turned out to be 101.5. In addition, the “RR (relative resistance) 1A9-PTX10 vs 1A9” value with 1A9-PTX10 (ratio of mean IC50 resistant/sensitive) stood at 59.
On to `CN1CCN(NC(=O)Nc2cccc3c2C(=O)c2c-3n[nH]c2-c2ccc(OCCN3CCOCC3)cc2)CC1` [Q], for which the IC50 in the assay on HCT-116 cells [1] (setting [6]) is less than 100 nM; in the assay on HCT-116 cells [1] (setting [7]), less than 1000 nM; in assay [2], less than 100 nM; in the assay with HCT-116 cells [3] (setting [8]), less than 100 nM; in the assay on HCT-116 cells [3] (72 h exposure, read-out: HCT-116 IC50 Clonogenic 72 h), less than 100 nM; in assay [4], less than 100 nM. Also, the IC50 in assay [5] was less than 10000 nM.
Take `CC(=O)O[C@@]12CO[C@@H]1C[C@H](O)[C@@]1(C)C(=O)[C@H](O)C3=C(C)[C@@H](OC(=O)[C@H](O)[C@@H](NC(=O)OC(C)(C)C)c4ccccc4)C[C@@](O)([C@@H](OC(=O)c4ccccc4)[C@H]21)C3(C)C` [Taxotere, N-debenzoyl-N-tert-butoxycarbonyl-10-deacetyl paclitaxel, reference compound]: the IC50 in the assay on 1A9 stood at 1.75 nM; in the assay on NCI-Adr resistant (verapamil 12.5 μg/ml), 36.3 nM; with NCI-Adr resistant (without verapamil), 3310 nM; in the assay on 1A9-PTX10, 160 nM.
